# Measured values published in patent publication US20160158179A1, “NANOEMULSION THERAPEUTIC COMPOSITIONS AND METHODS OF USING THE SAME” (THE REGENTS OF THE UNIVERSITY OF MICHIGAN, priority 2008, published 2016).
# How the values were obtained:
# [1] = tested on: Pseudomonas aeruginosa; test: MIC determination, CLSI microdilution with alamar blue; type: cell-based; details: Pseudomonas aeruginosa (n = 5); nanoemulsions in the presence of 5 mM EDTA; in µg/mL
# [2] = tested on: Acinetobacter baumannii; test: as above; type: cell-based; details: Acinetobacter baumannii (n = 5); nanoemulsions in the presence of 5 mM EDTA; in µg/mL
# [3] = tested on: Stenotrophomonas maltophilia; test: as above; type: cell-based; details: Stenotrophomonas maltophilia (n = 5); nanoemulsions in the presence of 5 mM EDTA; in µg/mL
# [4] = tested on: Stenotrophomonas strains; test: Checkerboard synergy study (FIC/FBC index); type: cell-based, Stenotrophomonas maltophilia; details: in combination with P4075EC+EDTA
# [5] = tested on: Acinetobacter strains; test: Checkerboard synergy study (FIC/FBC index); type: cell-based, Acinetobacter baumannii; details: in combination with P4075EC+EDTA
# [6] = tested on: Burkholderia strains; test: Checkerboard synergy study (FIC/FBC index); type: cell-based, Burkholderia cenocepacia; details: in combination with P4075EC+EDTA
# [7] = tested on: Acinetobacter baumannii; test: MIC and MBC determination (CLSI, alamar blue)
# [8] = tested on: Pseudomonas aeruginosa; test: MIC and MBC determination (CLSI, alamar blue), CF isolates
# [9] = tested on: Burkholderia cenocepacia; test: as above
# [10] = tested on: Stenotrophomonas maltophilia; test: as above
# [11] = share of 10 Stenotrophomonas strains with synergy
# [12] = share of 10 Acinetobacter strains with synergy
# [13] = share of 10 Burkholderia strains with synergy
substance,measurement,setting,value
Colistin,MIC Range,[1],<=0.5-2
same,MIC Range,[2],<=0.5-2
same,MIC Range,[3],<=0.5-1
same,Overall synergy result,[4]; Stenotrophomonas,Synergy
same,FIC,[4]; isolate NB42,0.08
same,Synergy (FBC),[4]; isolate NB42,indifferent
same,Synergy (FIC),[4]; isolate NB42,yes
same,FBC,[4]; isolate NB43,0.15
same,FIC,[4]; isolate NB43,0.08
same,Synergy (FBC),[4]; isolate NB43,yes
same,Synergy (FIC),[4]; isolate NB43,yes
same,FBC,[4]; isolate NB44,0.57
same,Synergy (FBC),[4]; isolate NB44,indifferent
same,Synergy (FIC),[4]; isolate NB44,indifferent
same,FBC,[4]; isolate NB45,0.45
same,FIC,[4]; isolate NB45,0.04
same,Synergy (FBC),[4]; isolate NB45,yes
same,Synergy (FIC),[4]; isolate NB45,yes
same,Synergy (FBC),[4]; isolate Steno 1,yes and indifferent
same,Synergy (FIC),[4]; isolate Steno 1,yes and indifferent
same,Synergy (FBC),[4]; isolate Steno 2,yes and indifferent
same,Synergy (FIC),[4]; isolate Steno 2,yes
same,Synergy (FBC),[4]; isolate Steno 3,yes and indifferent
same,Synergy (FIC),[4]; isolate Steno 3,yes and indifferent
same,FBC,[4]; isolate Steno 4,1.61
same,Synergy (FBC),[4]; isolate Steno 4,indifferent
same,Synergy (FIC),[4]; isolate Steno 4,yes and indifferent
same,Synergy (FBC),[4]; isolate Steno 6,yes and indifferent
same,Synergy (FIC),[4]; isolate Steno 6,yes and indifferent
same,Synergy (FBC),[4]; isolate Steno 8,yes and indifferent
same,Synergy (FIC),[4]; isolate Steno 8,yes and indifferent
same,% FBC Synergy,[4]; [11],70%
same,% FIC Synergy,[4]; [11],90%
same,Overall synergy result,[5]; Acinetobacter,No Interference
same,FIC,[5]; isolate NB31,0.83
same,Synergy (FBC),[5]; isolate NB31,indifferent
same,Synergy (FIC),[5]; isolate NB31,indifferent
same,FIC,[5]; isolate NB32,0.58
same,Synergy (FBC),[5]; isolate NB32,indifferent
same,Synergy (FIC),[5]; isolate NB32,indifferent
same,FBC,[5]; isolate NB33,2
same,FIC,[5]; isolate NB33,0.33
same,Synergy (FBC),[5]; isolate NB33,indifferent
same,Synergy (FIC),[5]; isolate NB33,yes
same,FBC,[5]; isolate NB34,1.10
same,FIC,[5]; isolate NB34,0.46
same,Synergy (FBC),[5]; isolate NB34,indifferent
same,Synergy (FIC),[5]; isolate NB34,yes
same,FBC,[5]; isolate NB35,0.97
same,FIC,[5]; isolate NB35,0.72
same,Synergy (FBC),[5]; isolate NB35,indifferent
same,Synergy (FIC),[5]; isolate NB35,indifferent
same,FBC,[5]; isolate NB36,2
same,FIC,[5]; isolate NB36,0.56
same,Synergy (FBC),[5]; isolate NB36,indifferent
same,Synergy (FIC),[5]; isolate NB36,indifferent
same,FBC,[5]; isolate NB37,1.00
same,FIC,[5]; isolate NB37,0.63
same,Synergy (FBC),[5]; isolate NB37,indifferent
same,Synergy (FIC),[5]; isolate NB37,indifferent
same,FBC,[5]; isolate NB38,0.68
same,FIC,[5]; isolate NB38,0.77
same,Synergy (FBC),[5]; isolate NB38,indifferent
same,Synergy (FIC),[5]; isolate NB38,indifferent
same,FIC,[5]; isolate NB39,0.72
same,Synergy (FBC),[5]; isolate NB39,indifferent
same,Synergy (FIC),[5]; isolate NB39,indifferent
same,FBC,[5]; isolate NB40,0.91
same,FIC,[5]; isolate NB40,0.63
same,Synergy (FBC),[5]; isolate NB40,indifferent
same,Synergy (FIC),[5]; isolate NB40,indifferent
same,% FBC Synergy,[5]; [12],0%
same,% FIC Synergy,[5]; [12],20%
same,Overall synergy result,[6]; Burkholderia,No Interference
same,Synergy (FBC),[6]; isolate NB21,indifferent
same,Synergy (FIC),[6]; isolate NB21,indifferent
same,Synergy (FBC),[6]; isolate NB22,indifferent
same,Synergy (FIC),[6]; isolate NB22,indifferent
same,FBC,[6]; isolate NB23,2.00
same,Synergy (FBC),[6]; isolate NB23,indifferent
same,Synergy (FIC),[6]; isolate NB23,indifferent
same,FBC,[6]; isolate NB24,2.00
same,Synergy (FBC),[6]; isolate NB24,indifferent
same,Synergy (FIC),[6]; isolate NB24,indifferent
same,FBC,[6]; isolate NB25,3.00
same,FIC,[6]; isolate NB25,2.00
same,Synergy (FBC),[6]; isolate NB25,indifferent
same,Synergy (FIC),[6]; isolate NB25,indifferent
same,FBC,[6]; isolate NB26,0.04
same,FIC,[6]; isolate NB26,0.56
same,Synergy (FBC),[6]; isolate NB26,yes
same,Synergy (FIC),[6]; isolate NB26,yes
same,Synergy (FBC),[6]; isolate NB27,indifferent
same,Synergy (FIC),[6]; isolate NB27,indifferent
same,FIC,[6]; isolate NB28b,0.29
same,Synergy (FBC),[6]; isolate NB28b,indifferent
same,Synergy (FIC),[6]; isolate NB28b,yes
same,Synergy (FBC),[6]; isolate NB29,indifferent
same,Synergy (FIC),[6]; isolate NB29,indifferent
same,FIC,[6]; isolate NB30,0.02
same,Synergy (FBC),[6]; isolate NB30,indifferent
same,Synergy (FIC),[6]; isolate NB30,yes
same,% FBC Synergy,[6]; [13],10%
same,% FIC Synergy,[6]; [13],30%
same,MBC 50,[7]; 10 CF Acinetobacter isolates,4 µg/mL
same,MBC 90,[7]; 10 CF Acinetobacter isolates,>16 µg/mL
same,MIC 50,[7]; 10 CF Acinetobacter isolates,1 µg/mL
same,MIC 90,[7]; 10 CF Acinetobacter isolates,1 µg/mL
same,MBC 90,[7]; A. baumannii,> 16 µg/mL
same,MIC 90,[7]; A. baumannii,1 µg/mL
same,MBC 50,[7]; Acinetobacter,4 µg/mL
same,MBC 90,[7]; Acinetobacter,>16 µg/mL
same,MIC 50,[7]; Acinetobacter,1 µg/mL
same,MIC 90,[7]; Acinetobacter,1 µg/mL
same,MBC 90,[8]; P. aeruginosa,8 µg/mL
same,MIC 90,[8]; P. aeruginosa,2 µg/mL
same,MBC 50,[8]; Pseudomonas,4 µg/mL
same,MBC 90,[8]; Pseudomonas,8 µg/mL
same,MIC 50,[8]; Pseudomonas,2 µg/mL
same,MIC 90,[8]; Pseudomonas,2 µg/mL
same,MBC 90,[9]; B. cenocepacia,> 32 µg/mL
same,MIC 90,[9]; B. cenocepacia,> 32 µg/mL
same,MBC 50,[9]; Burkholderia,>32 µg/mL
same,MBC 90,[9]; Burkholderia,>32 µg/mL
same,MIC 50,[9]; Burkholderia,>32 µg/mL
same,MIC 90,[9]; Burkholderia,>32 µg/mL
same,MIC,[9]; CF Burkholderia isolate NB26,>32 µg/mL
same,MBC 90,[10]; S. maltophilia,> 32 µg/mL
same,MIC 90,[10]; S. maltophilia,> 32 µg/mL
same,MBC 50,[10]; Stenotrophomonas,>32 µg/mL
same,MBC 90,[10]; Stenotrophomonas,>32 µg/mL
same,MIC 50,[10]; Stenotrophomonas,16 µg/mL
same,MIC 90,[10]; Stenotrophomonas,>32 µg/mL
